Results as given in patent publication US20220193013A1, “Pharmaceutical Composition for Treatment or Prevention of Multiple Inflammatory Disorders” (priority 2020, published 2022).

Tests used:
[1] = system: microbial populations in fecal samples; test: microbiome study in NASH mouse model (AMLN diet), 4 weeks; type: in vivo
Text: There were changes in the microbiome in a mice model using a high-fat diet after 4 weeks of treatment with and without administering DA orally. The high fat diet itself induced extensive changes in the microbial populations in all groups. Importantly though, there was a pronounced difference between the DA treatment group and the control group at week 4.
The effect of a small molecule oral TAS2R agonist (DA) was investigated on microbial populations in a nonalcoholic steatohepatitis (NASH) mouse model. Two groups of 4-week-old male C57BL/6 mice (20/group) were fed Amylin Liver NASH (AMLN) diet and received daily doses of ARD-101 (30 mg/mL in water) or vehicle (water) via intragastric gavage. DNA was isolated from fecal samples collected at week 0 and 4, and microbial ecology was evaluated using bTEFAP (bacterial tag-encoded FLX amplicon pyrosequencing). Operational taxonomic units were classified using BLAST against a curated NCBI database. Diversity within specific ecosystems and microbial community structures was analyzed with Qiime 2. Differences were determined by repeated measures ANOVA and post hoc pairwise comparisons using Tukey's test. Taxonomic classification data were evaluated with a dual hierarchal dendrogram.

[2] = system: air pouch model of inflammation, C57BL/6 mice; test: murine air pouch model of inflammation (LPS induction); type: in vivo, mouse
Procedure: This example provides the results of investigating DA to modulate immune response in a murine air pouch model of inflammation. Eight C57BL/6 mice were assigned to groups for gavage treatment (BID) of controls (distilled water), DA at a dose of 23.1 mg/kg BID (low dose DA), and DA at a dose of 96.4 mg/kg BID (high dose DA). What was measured was infiltrating cell counts with air pouch exudates, IL-6 levels in air pouch exudates by an ELISA assay (R&D Systems Cat. No. M6000B), and multiple cytokine analysis (Mouse 32Plex Kit MilliporeSigma Cat. No. MCYTMAG70PMX32BK). Statistical analysis was done by a one-way ANOVA followed by Tukey's multiple comparison post hoc test for data with normal distribution, Kruskal-Wallis test followed by Dunn's multiple comparison post hoc test for data with skewed distribution, and the ROUT method for identifying outliers.
Duarte et al., Current Protocols in Pharmacology, 5.6.1-5.6.8 Mar. 2012, describes “The subcutaneous air pouch is an in vivo model that can be used to study acute and chronic inflammation, the resolution of the inflammatory response, and the oxidative stress response. Injection of irritants into an air pouch in rats or mice induces an inflammatory response that can be quantified by the volume of exudate produced, the infiltration of cells, and the release of inflammatory mediators. The model presented in this unit has been extensively used to identify potential anti-inflammatory drugs.” It can be used to study localized inflammation without systemic effects. But in this case the drug was administered orally, by gavage BID.
Test administration was 5 ml/kg body weight BID dosing with 8 hour intervals. The air pouch was created in each test BL6 mouse by sc injection of 1.5 ml/mouse of sterile air on day 0 and 1.5 ml/mouse of sterile air on day 3. Compounds (or control distilled water) were administered BID on day −2. LPS (0.75 mg/animal in 1 ml endotoxin free PBS) was administered at hour 0 or one hour after dosing with test compounds. Plasma samples were collected at termination and exudates of the air pouches for all groups. Cell count analysis and IL-6 assays were conducted at the animal facility and plasma and exudate samples were sent out for cytokine analysis. Each group of distilled water control, 23.1 mg/kg DA and 92.4 mg/kg DA had 8 mice each.

[3] = system: acute lung injury plus hyperthermia, CD-1 mice; test: mouse acute lung injury plus hyperthermia model; type: in vivo
Procedure: This example provides results of a study to evaluate the effect of denatonium acetate in a mouse acute lung injury plus hyperthermia model. The procedure was three groups of CD-1 mice given (1) saline by gavage for oral administration BID, (2) DA administered oral at a dose of 92.4 mg/kg BID and (3) was DA iv at 3 mg/kg iv bolus QD. Lung lavage fluid was measured and cytokine analysis. Statistics was one-way ANOVA followed by Tukey's multiple comparison post hoc test for data with normal distribution; Kruskal-Wallis test followed by Dunn's multiple comparison post hoc test for data with skewed distribution; and the ROUT method for identifying outliers. Control or drug administered for 3 days, then LPS at 50 μL of 1 mg/ml delivered intratracheally with a Penn Century needle where a core temperature of 39 C at 24 hours post LPS and then sacrifice to measure lung lavage fluid protein concentration and serum cytokine levels.

[4] = 4-week DA treatment, genetic potential of microbiome
[5] = treatment at 4 weeks versus baseline and control
[6] = week 4, DA group versus vehicle group, AMLN diet

CC(=O)[O-].CC[N+](CC)(CC(=O)Nc1c(C)cccc1C)Cc1ccccc1 [DA, denatonium acetate]
arginine and ornithine metabolism [1, 4]: significantly decreased signaling
pathways for biosynthesis of unsaturated fatty acids [1, 4]: significant enrichment
pathways for glycolysis and gluconeogenesis [1, 4]: significant enrichment
pathways for lysine degradation [1, 4]: significant enrichment
pathways for metabolism of arachidonic acid [1, 4]: significant enrichment
pathways for metabolism of cofactors and vitamins [1, 4]: significant enrichment
phosphatidylinositol signaling [1, 4]: significant enrichment
SCFAs in feces ([1]; AMLN diet, DA treatment): mitigated the diet-induced decrease
diversity within ecosystems and microbial communities ([1]; DA versus vehicle group at week 4, p<0.05): significantly less diversity
genus: Lachnoclostridium, Barnesiella, Clostridium, Oscillospira, Dorea, candidatus soleaferrea, Dehalobacterium, Oscillibacter, Flavonifractor [1, 5]: Significantly Decreased
genus: Parabacteroides, Escherichia, Erysipelatoclostridium, Peptoclostridium, Sutterella, Shigella, Brenneria [1, 5]: Significantly Increased
Cyanobacteria (phylum level) [1, 6]: significant increases
Deferribacteres (phylum level) [1, 6]: significant decreases
Firmicutes (phylum level) [1, 6]: significant decreases
Proteobacteria (phylum level) [1, 6]: significant increases
Spirochetes (phylum level) [1, 6]: significant decreases
Verrucomicrobia (phylum level) [1, 6]: significant increases
Bacteroidetes (phylum level) ([1]; week 4, not marked significant): decreased
IL-1β level ([2]; higher dose of DA): significant reduction
IL-10 level ([2]; higher dose of DA): significant reduction
IL-17 level ([2]; higher dose of DA): significant reduction
TNF-1α level ([2]; higher dose of DA): significant reduction
IL-6 levels in air pouch exudates ([2]; pre-treated with DA at 96.4 mg/kg BID gavage, ELISA, vs vehicle and lower dose): significantly lower
infiltrating cell count in air pouch exudates ([2]; pre-treated with DA at 96.4 mg/kg BID gavage, vs vehicle and lower dose): significantly lower
protein concentration in lung lavage fluid ([3]; iv 3 mg/kg bolus QD): drastic but not significantly reduced
protein concentration in lung lavage fluid ([3]; oral 92.4 mg/kg BID): drastic but not significantly reduced
